Experimental data as given in patent US9029337B2, “Modulation of factor 7 expression” (Isis Pharmaceuticals, Inc., priority 2007, dated 2015).
Strand notation (5' to 3'): a small letter for the sugar, then the base; units joined by * are phosphorothioate-linked, units joined directly phosphodiester-linked; [ ] holds rarer units or linkages, { } end groups; capitals alone tell only the bases. e = 2'-O-(2-methoxyethyl) (MOE); [5mC] = 5-methylcytosine; d = 2'-deoxy (DNA)

Each substance was assayed on human Factor 7 mRNA (assay: Antisense inhibition of human Factor 7 with short (14-mer) oligonucleotides in HepB3 cells, electroporation 1,000 nM). Settings: electroporation, 1,000 nM antisense oligonucleotide, approximately 24 hours, Factor 7 mRNA relative to untreated control cells.
Format: cell-based
Source text: Short antisense oligonucleotides (shortmers) were designed to target a Factor 7 nucleic acid. The shortmers in Table 17 were designed as 2-10-2 MOE gapmers. The gapmers are 14 nucleotides in length, wherein the central gap segment is comprised of 10 2′-deoxynucleotides and is flanked on both sides (in the 5′ and 3′ directions) by wings comprising 2 nucleotides each. Each nucleotide in the 5′ wing segment and each nucleotide in the 3′ wing segment has a 2′-MOE modification. The internucleoside linkages throughout each gapmer are phosphorothioate (P═S) linkages. All cytidine residues throughout each gapmer are 5-methylcytidines.
Shortmers were evaluated for their ability to reduce human Factor 7 mRNA in HepB3 cells and compared with one 5-10-5 chimeric oligonucleotide from Table 16, ISIS 407939. HepB3 cells at a density of 20,000 cells per well in a 96-well plate were transfected using electroporation with 1,000 nM of antisense oligonucleotide. After a treatment period of approximately 24 hours, RNA was isolated from the cells and Factor 7 mRNA levels were measured by real-time RT-PCR, as described herein. Factor 7 mRNA levels were adjusted according to total RNA content as measured by RIBOGREEN®. Results are presented in Table 17 as percent inhibition of Factor 7 mRNA, relative to untreated control cells. ISIS 407939 is the first oligonucleotide in Table 17 to which the shortmers were compared, and is marked by an asterisk (*).

Substance | % Inhibition [%]
435829 (antisense eG*eG*dG*dT*dA*dG*dA*d[5mC]*d[5mC]*d[5mC]*dT*d[5mC]*eA*eG) [compound 435829] | 18
435699 (antisense eG*e[5mC]*d[5mC]*d[5mC]*d[5mC]*dA*dG*d[5mC]*dT*dG*dA*d[5mC]*eG*eA) [compound 435699] | 48
435659 (antisense eT*eA*d[5mC]*d[5mC]*d[5mC]*d[5mC]*dT*d[5mC]*dG*dT*dG*dG*e[5mC]*eA) [compound 435659] | 18
435641 (antisense eG*eG*dT*d[5mC]*d[5mC]*d[5mC]*d[5mC]*dA*dT*d[5mC]*dA*d[5mC]*eT*eG) [compound 435641] | 51
435653 (antisense eA*eT*d[5mC]*dA*dG*d[5mC]*dT*dG*dG*dT*d[5mC]*dA*eT*e[5mC]) [compound 435653] | 32
435823 (antisense eT*eG*dA*dG*dT*d[5mC]*d[5mC]*d[5mC]*dA*dG*dG*d[5mC]*eT*eG) [compound 435823] | 41
435802 (antisense eG*eT*d[5mC]*dA*d[5mC]*d[5mC]*dT*dA*dG*dA*d[5mC]*d[5mC]*eA*eA) [compound 435802] | 61
435739 (antisense e[5mC]*eA*dT*d[5mC]*dT*d[5mC]*dA*dG*dA*dG*dG*dA*eT*eG) [compound 435739] | 5
435783 (antisense eA*eA*dA*d[5mC]*d[5mC]*dG*dG*d[5mC]*dA*dT*dG*d[5mC]*eG*e[5mC]) [compound 435783] | 49
435748 (antisense eT*e[5mC]*d[5mC]*d[5mC]*dA*dG*dG*dG*dT*d[5mC]*dT*d[5mC]*eT*eG) [compound 435748] | 18
435809 (antisense e[5mC]*eT*dG*dA*d[5mC]*dA*dA*dT*dG*dT*dG*dA*eT*eG) [compound 435809] | 5
435648 (antisense eG*eA*dA*dG*d[5mC]*dA*dG*dA*dT*dA*dT*dA*eG*eG) [compound 435648] | 0
435662 (antisense eT*eG*dG*dA*dT*dA*dT*dT*d[5mC]*dA*dA*d[5mC]*eT*eG) [compound 435662] | 19
435751 (antisense e[5mC]*eT*dT*dG*d[5mC]*d[5mC]*dA*dG*dG*dT*d[5mC]*d[5mC]*eT*e[5mC]) [compound 435751] | 28
435723 (antisense eG*e[5mC]*d[5mC]*dA*dG*d[5mC]*dA*dG*dA*dT*d[5mC]*dA*e[5mC]*eG) [compound 435723] | 68
435675 (antisense eT*eG*dT*d[5mC]*dG*dA*dA*dA*d[5mC]*dA*dG*dT*eG*eG) [compound 435675] | 24
435691 (antisense e[5mC]*eA*dG*d[5mC]*d[5mC]*dG*d[5mC]*dT*dG*dA*d[5mC]*d[5mC]*eA*eA) [compound 435691] | 25
435813 (antisense eG*eG*dA*dT*dG*d[5mC]*dA*d[5mC]*dA*d[5mC]*d[5mC]*dA*eG*eG) [compound 435813] | 55
435678 (antisense eA*eG*dG*dT*d[5mC]*dG*dT*dG*d[5mC]*dT*d[5mC]*dG*e[5mC]*e[5mC]) [compound 435678] | 67
435478 (antisense eG*eA*dG*dG*d[5mC]*dA*d[5mC]*dA*d[5mC]*dT*dG*dG*eT*e[5mC]) [compound 435478] | 43
435650 (antisense e[5mC]*e[5mC]*dG*dG*d[5mC]*d[5mC]*d[5mC]*dT*d[5mC]*dG*dA*dA*eG*eG) [compound 435650] | 6

Substance | % Inhibition [%]
435814 (antisense eT*eG*dA*d[5mC]*dG*dA*dG*dA*dG*dG*dA*d[5mC]*e[5mC]*eA) [compound 435814] | 31
435797 (antisense eA*eA*dT*d[5mC]*dT*dT*dG*dG*d[5mC]*d[5mC]*d[5mC]*d[5mC]*eT*e[5mC]) [compound 435797] | 16
435491 (antisense e[5mC]*e[5mC]*d[5mC]*dT*dG*dG*dT*dG*dT*dA*d[5mC]*dA*e[5mC]*e[5mC]) [compound 435491] | 61
435773 (antisense e[5mC]*eA*dG*dG*dG*dA*dA*d[5mC]*dA*d[5mC]*d[5mC]*d[5mC]*eT*e[5mC]) [compound 435773] | 57
435726 (antisense eG*e[5mC]*dA*dA*dT*dG*dA*dA*dG*dG*d[5mC]*dA*eG*eA) [compound 435726] | 26
435689 (antisense eT*eT*d[5mC]*dG*dG*dG*d[5mC]*dA*dG*dG*d[5mC]*dA*eG*eA) [compound 435689] | 23
435834 (antisense eT*eG*dA*d[5mC]*dA*dG*d[5mC]*dA*d[5mC]*dG*dA*dA*eG*e[5mC]) [compound 435834] | 20
435489 (antisense e[5mC]*eT*dG*dG*dT*dG*dT*dA*d[5mC]*dA*d[5mC]*d[5mC]*e[5mC]*e[5mC]) [compound 435489] | 72
435806 (antisense eT*eG*dA*d[5mC]*d[5mC]*d[5mC]*d[5mC]*dA*d[5mC]*dA*dG*dG*eG*eA) [compound 435806] | 7
435688 (antisense eA*e[5mC]*d[5mC]*dA*d[5mC]*dA*dT*dG*dG*dT*d[5mC]*dA*eG*eT) [compound 435688] | 0
435697 (antisense eA*eG*dT*dA*dG*d[5mC]*d[5mC]*dG*dG*d[5mC]*dA*d[5mC]*eA*eG) [compound 435697] | 53
435827 (antisense eT*e[5mC]*dA*dG*dA*dA*dA*dG*dA*dT*dG*d[5mC]*eA*eG) [compound 435827] | 5
435815 (antisense e[5mC]*eT*d[5mC]*dT*dT*d[5mC]*d[5mC]*dG*dA*dG*d[5mC]*dA*eG*e[5mC]) [compound 435815] | 59
435848 (antisense eT*eG*dG*d[5mC]*d[5mC]*dA*d[5mC]*dT*dG*d[5mC]*d[5mC]*dT*e[5mC]*eA) [compound 435848] | 32
435480 (antisense eG*eG*dT*d[5mC]*dA*dT*d[5mC]*dA*dG*d[5mC]*d[5mC]*dG*eG*eG) [compound 435480] | 53
435695 (antisense eG*eA*d[5mC]*dT*dG*d[5mC]*dT*dG*d[5mC]*dA*dG*dG*e[5mC]*eA) [compound 435695] | 48
435765 (antisense e[5mC]*eA*dA*dA*dG*dT*dT*d[5mC]*dT*d[5mC]*dT*dG*e[5mC]*e[5mC]) [compound 435765] | 1
435639 (antisense eT*e[5mC]*d[5mC]*dA*dG*dA*dA*d[5mC]*dA*dG*d[5mC]*dT*eT*e[5mC]) [compound 435639] | 31
435685 (antisense eA*eG*dG*dA*d[5mC]*d[5mC]*dA*d[5mC]*dG*dG*dG*d[5mC]*eT*eG) [compound 435685] | 40
435758 (antisense e[5mC]*e[5mC]*d[5mC]*dT*dG*dA*dG*d[5mC]*dT*dG*dG*dG*e[5mC]*eA) [compound 435758] | 4
435718 (antisense eG*e[5mC]*dT*d[5mC]*dG*d[5mC]*dA*dG*dG*dA*dG*dG*eA*e[5mC]) [compound 435718] | 26
